The record followed here is patent US20230277630A1, “METHODS AND COMPOSITIONS FOR TREATING AMYOTROPHIC LATERAL SCLEROSIS” (Amylyx Pharmaceuticals, Inc., priority 2022, published 2023).

Series [1] addresses T1, human liver microsomes (HLM) (Homo sapiens, UniProt P10632).
T1 construct: from tissue; host or cells: pooled human liver microsomes
T1 sequence (P10632 1-490): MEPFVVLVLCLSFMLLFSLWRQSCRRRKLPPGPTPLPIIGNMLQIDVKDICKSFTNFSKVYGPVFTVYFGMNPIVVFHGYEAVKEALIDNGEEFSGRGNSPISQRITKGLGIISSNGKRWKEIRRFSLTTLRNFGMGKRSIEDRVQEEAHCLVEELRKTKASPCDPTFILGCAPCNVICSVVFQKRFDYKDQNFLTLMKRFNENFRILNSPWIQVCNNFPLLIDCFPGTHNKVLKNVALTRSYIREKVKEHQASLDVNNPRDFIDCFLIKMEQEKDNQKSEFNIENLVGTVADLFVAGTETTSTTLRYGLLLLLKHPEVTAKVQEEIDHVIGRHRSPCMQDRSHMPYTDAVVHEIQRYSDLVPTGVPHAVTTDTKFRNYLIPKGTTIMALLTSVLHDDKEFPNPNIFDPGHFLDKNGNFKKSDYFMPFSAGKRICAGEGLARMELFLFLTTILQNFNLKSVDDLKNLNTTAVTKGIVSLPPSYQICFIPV
The series is described as follows: CYP reaction phenotyping using HLM and chemical inhibitors (% remaining). The series is classed as in vitro ADME. The following applies: human, microsomes, 5 μM, pH 7.4. An excerpt:
% Remaining of TA=100×At/A0
Where, At and A0 are the peak area ratio of TA to IS at time t and at time zero, respectively.

Series [2] deals with P-gp and BCRP. The series is described as follows: in vitro. The following applies: human. The protocol:
The P-gp and BCRP substrate assessment was conducted in C2BBe1 cell monolayers. […] LY was co-dosed with each dosing solution at a nominal concentration of 200 μM.
The cell culture medium was aspirated, and the cell monolayers were rinsed once with HBSSg_7.4. […] For receiver samples, aliquots (300 μL) were taken at pre-selected time points. […] For donor samples, aliquots (50 μL) were taken at pre-selected time points without replacement.

Series [3] is described as follows: Chemical stability in HBSSg_7.4 and HBSS_8.5. It counts as physicochemical. The protocol:
The test article was prepared in DMSO stock (0.5 mM), and aliquots of the DMSO stock were added to each matrix. The nominal concentration of each component was 0.5 μM in each matrix. […] At pre-determined time points, an equal volume of acetonitrile with internal standard was added to each vial, and the mixture was placed at 4° C. until the end of the assay. The peak areas of the test article and IS of each sample were determined by LC-MS/MS, and the ratios of the peak areas (analyte: IS) were calculated.

[4] abbreviates: Caco-2, pH 7.4, AP-to-BL Papp of TUDCA.
Setting [5] is: Caco-2, pH 7.4, AP-to-BL Recovery of TUDCA.
The mark [6] stands for this setting: Caco-2, pH 7.4, BL-to-AP Papp of TUDCA.
Where [7] appears, read: Caco-2, pH 7.4, BL-to-AP Recovery of TUDCA.

A word on the Papp A→B: it is the apparent permeability from the apical to the basolateral side of a cell layer. High values mean ready permeation, low ones poor permeation. The Papp B→A is how fast a substance crosses the layer from the basolateral side. As for `C[C@H](CCC(=O)NCCS(=O)(=O)O)[C@H]1CC[C@H]2[C@@H]3[C@@H](O)C[C@@H]4C[C@H](O)CC[C@]4(C)[C@H]3CC[C@]12C` [TUDCA, tauroursodeoxycholic acid], in series [1] (0 h), the “% Remaining of TA (n = 3) Average” value amounted to 100%. The “% Remaining of TA (n = 3) Average” value in series [1] (5 min) turned out to be 101%. For the same compound, in series [1] (10 min), the “% Remaining of TA (n = 3) Average” value worked out at 103%. The “% Remaining of TA (n = 3) Average” value in series [1] (20 min) is listed as 95.5%. Also, the “% Remaining of TA (n = 3) Average” value in series [1] (0.5 h) was determined as 105%. The “% Remaining of TA (n = 3) Average” value in series [1] (1 h) was determined as 97.7%. For the same compound, in series [2] (setting [4]), the Papp A→B at 1.62 µM is 9.59 ×10⁻⁶ cm/s, the Papp A→B at 81 µM stood at 5.84 ×10⁻⁶ cm/s and the Papp A→B at […] was determined as 7.47 ×10⁻⁶ cm/s. Besides, in series [2] (setting [5]), the recovery at 1.62 μM came to 78.5%, the recovery at 16.2 μM is 71.6% and the recovery at 81 μM came out at 101%. Moreover, in series [2] (setting [6]), the Papp B→A at 1.62 µM is 1.75 ×10⁻⁶ cm/s, the Papp B→A at 16.2 µM is 0.553 ×10⁻⁶ cm/s, the Papp B→A at 81 µM was 2.66 ×10⁻⁶ cm/s and the Papp B→A at […] was found to be 1.94 ×10⁻⁶ cm/s. Further, in series [2] (setting [7]), the recovery at 1.62 μM was determined as 79.5%, the recovery at 16.2 μM stood at 76.1% and the recovery at 81 μM came out at 101%.

Turning to `O=C(O)CCCc1ccccc1` [PB, sodium phenylbutyrate], the “Percent of the 0-minute value” in series [3] (HBSSg_7.4, Overnight (1020-[…])) was 105%; in series [3] (HBSSg_7.4, sampling time 0 minutes) it was 100%; in series [3] (HBSSg_7.4, sampling time 120 minutes), 99.3%; in series [3] (HBSSg_8.5, Overnight (1020-[…])), 98.6%; in series [3] (HBSSg_8.5, sampling time 0 minutes), 100%; in series [3] (HBSSg_8.5, sampling time 120 minutes), 79.4%. Besides, the “chemical stability in the tested matrices” value in series [3] (HBSSg_7.4 and HBSS_8.5, 37° C., 0.5 μM) is recorded as “appeared to be stable”.
